Measurements as given in article PMC9981512, “Thin film hydration versus modified spraying technique to fabricate intranasal spanlastic nanovesicles for rasagiline mesylate brain delivery: Characterization, statistical optimization, and in vivo pharmacokinetic evaluation” (Drug Delivery and Translational Research, 2022).
Structures can show the parent of a compound that is named as a salt. Where two headings read alike, the source gives them in different places.

Columns and labels:
[1] = after oral administration; cited from earlier work
[2] = In vivo pharmacokinetics and brain targeting in rats, LC-MS/MS of brain homogenate and plasma; details: rat, RM in brain, intravenous, 0.05 mg/kg/day
Procedure: In order to evaluate the in vivo performance of the selected MST 2, an in vivo pharmacokinetics study was performed to measure the bioavailability and brain-targeting ability of the selected system after intranasal administration into rats. The study protocol was previously approved by the research ethics committee for the experimental and clinical studies at the Faculty of Pharmacy Cairo University with approval code (PI 2680). Briefly, forty-eight rats were divided into two groups (n = 24), and each group was divided into eight subgroups (n = 3). The average weight of the rats was 180 gm, and they were subjected to 12-h cycles of light/darkness. They were kept in cages with free access to food and water. The relative humidity was maintained in range 40–60%, and the temperature ranged from 20 to 25 °C during the experiment.
The first group was administered the optimized MST 2 equivalent to 0.05 mg/kg/day of RM [44] intranasally (IN) using a polyethylene tube which was attached to Hamilton syringe, whereas the second group was administered the same dose of an intravenous (IV) RM aqueous solution through the tail vein. Blood samples were collected from the rats at specified time intervals (0.25, 0.5, 1, 1.5, 2, 4, 8, and 12 h) via the puncture of lateral vesicular vein, centrifuged at 4000 rpm for 15 min, and separated to obtain the plasma that was then frozen at –80 °C until further investigations. Additionally, six rats (three of each subgroup) were anaesthetized and sacrificed to separate the brain tissues at 0.5, 1, 2, 4, and 8 h. The brain tissues were washed twice with normal saline and then weighed. An equal weight of normal saline was added to each brain sample, which was then homogenized (Heidolph DIAX 900, Heidolph Instruments, Schwabach, Germany) and kept frozen at – 80 °C until analysis. RM levels in plasma samples and brain homogenates were measured by a validated liquid chromatography-mass spectrometry (LC–MS/MS) method.
Calibration curves of RM in plasma and brain homogenate were constructed using clonazepam as internal standard (IS). Briefly, specific volumes of RM stock solution were mixed with one hundred microliter of clonazepam stock solution (100 ng/mL) and then spiked into 0.5 mL plasma or brain homogenate to obtain the following concentrations: 0.1, 1, 10, 20, 100, and 1000 ng/mL. For RM extraction from the samples, 0.5 mL of plasma samples or brain homogenates was mixed with 100 µL of clonazepam solution as IS and 4 mL of ethyl acetate to precipitate the proteins followed by vortexing (Stuart SA8, BiBBY Sterlin Ltd., UK) for 5 min and centrifugation for 10 min at 3000 rpm. The supernatant was transferred to a new tube to evaporate the organic solvent under vacuum using a vacuum concentrator (Eppendorf 5301, Hamburg, Germany). The obtained dry residue was reconstituted in 0.5 mL of the mobile phase (acetonitrile: 0.1% formic acid solution in water at a ratio (80:20 v/v)) after then, 9 µL of the obtained solution was injected into (LC–MS/MS) for analysis.
The analysis of RM in plasma samples and brain homogenates was done by LC–MS/MS (Shimadzu CBM20A, Japan) fitted with mass spectrometer AB Sciex 4000 (Sciex Instruments, USA) and auto-sampler (Shimadzu SIL20A, Japan). The mass spectrometer was equipped with turbo ion spray having a positive polarity with temperature set at 500 °C. The samples were analyzed by injecting aliquots of 9 µL, and the mobile phase flow rate was adjusted at 0.8 mL/min. The transition was from 172.036 to 117.000 m/z for RM and from 316.024 to 270 m/z in case of clonazepam. The analysis of the obtained results was done using Analyst software (version 1.6.3, Sciex Instruments, Framingham, USA).
Non-compartmental pharmacokinetic model was applied to analyze RM plasma and brain levels using Kinetica software (version 2000, Arlington, USA). […]

[3] = In vitro release of RM, modified Franz diffusion cells with dialysis membrane, simulated nasal fluid; format: physicochemical; details: simulated nasal fluid pH 6.5, 37 °C, 50 rpm
Procedure: The in vitro release of RM from the optimized systems was investigated using modified Franz diffusion cells (Franz diffusion cell with dialysis membrane). In a few words, an exact volume of each optimized system was placed in the donor cell, and the dialysis process was performed against 50 mL of simulated nasal fluid (SNF; CaCl2.2H2O 0.32 mg/mL, NaCl 7.45 mg/mL, KCl 1.29 mg/mL, pH 6.5) maintained at 37 °C while stirring at 50 rpm. Three milliliter sample was withdrawn at each time interval (0.25, 0.5, 1, 1.5, 2, 3, 4, 6, 8, 10 and 12 h) and replaced with equal volumes of drug free SNF [39]. The amount of RM in each sample was measured spectrophotometrically at λmax 265 nm. The in vitro release profiles of the two optimized systems were compared to RM aqueous solution profile. Furthermore, the mean dissolution time (MDT) was calculated for both systems following Eq. (2):2 MDT=∑j=1ntj∗ΔMj/∑j=1nΔMj where j is the sample number, tj* is the midpoint time between t and tj-1 that can be calculated by (t + tj-1/2), n is the number of release samples, and ∆Mj is the additional amount released between t and tj-1. The higher the MDT value, the slower the drug release rate.

Structure (SMILES): C#CCN[C@@H]1CCc2ccccc21 [RM, Rasagiline mesylate]
- half-life [1]: 1.5 to 3.5 h
- time to reach maximum concentration in plasma [1]: ≤ 1 h
- AUC(0-inf) [2]: 28 ± 1.84 ng·h/mL
- Cmax [2]: 15.8 ± 0.34 ng/mL
- Tmax [2]: 0.5 h
- k el ([2]; read-out: K (hr^−1) elimination rate constant (converted)): 0.377 h⁻¹
- MRT ([2]; read-out: MRT (hr) mean residence time): 2.27 ± 0.71 h
- half-life ([2]; read-out: T1/2 half (converted)): 1.83 ± 0.24 h
- mean dissolution time (MDT) [3]: 0.333 ± 0.0991 h
- time of complete release of RM [3]: 4 h
